PubChem BioAssay AID330 (DTP/NCI, 2004)
Several values for one entry are separate records, joined by “and”; a condition that tells them apart may be missing. Identical values can stand only once. Inconclusive results and toxic doses are left out.

Test system: P388 leukemia ip, CD2F1 mice, survival T/C
Assay: NCI In Vivo Anticancer Drug Screen. Data for tumor model P388 Leukemia (intraperitoneal) in CD2F1 (CDF1) mice
Details: endpoint: median survival time, higher = longer survival
Outline: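 Mice carrying the transplanted tumor received test compound or vehicle. Survival was recorded in each group, and the value is the treated-group measurement divided by that of the vehicle-treated control group.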

[1] = dose: 100.0 mg/kg/injection, schedule: Q01DX001 (ip), vehicle: Klucel (hydroxypropylcellulose) (HPC)
[2] = dose: 200.0 mg/kg/injection, schedule: Q01DX001 (ip), vehicle: Klucel (hydroxypropylcellulose) (HPC)
[3] = dose: 400.0 mg/kg/injection, schedule: Q01DX001 (ip), vehicle: Klucel (hydroxypropylcellulose) (HPC)
[4] = dose: 25.0 mg/kg/injection, schedule: Q01DX005 (ip), vehicle: saline with Tween-80
[5] = dose: 50.0 mg/kg/injection, schedule: Q01DX009 (ip), vehicle: Klucel (hydroxypropylcellulose) (HPC)
[6] = dose: 100.0 mg/kg/injection, schedule: Q01DX009 (ip), vehicle: Klucel (hydroxypropylcellulose) (HPC)
[7] = dose: 200.0 mg/kg/injection, schedule: Q01DX009 (ip), vehicle: Klucel (hydroxypropylcellulose) (HPC)
[8] = dose: 60.0 mg/kg/injection, schedule: Q01DX005 (ip), vehicle: saline with Tween-80
[9] = dose: 120.0 mg/kg/injection, schedule: Q01DX005 (ip), vehicle: saline with Tween-80
[10] = dose: 100.0 mg/kg/injection, schedule: Q01DX009 (ip), vehicle: saline
[11] = dose: 200.0 mg/kg/injection, schedule: Q01DX009 (ip), vehicle: saline
[12] = dose: 50.0 mg/kg/injection, schedule: Q01DX009 (ip), vehicle: saline
[13] = dose: 50.0 mg/kg/injection, schedule: Q01DX009 (ip), vehicle: saline with Tween-80
[14] = dose: 100.0 mg/kg/injection, schedule: Q01DX009 (ip), vehicle: saline with Tween-80
[15] = dose: 200.0 mg/kg/injection, schedule: Q01DX009 (ip), vehicle: saline with Tween-80
[16] = dose: 25.0 mg/kg/injection, schedule: Q01DX009 (ip), vehicle: saline with Tween-80
[17] = dose: 50.0 mg/kg/injection, schedule: Q01DX005 (ip), vehicle: saline with Tween-80
[18] = dose: 12.5 mg/kg/injection, schedule: Q01DX009 (ip), vehicle: Klucel (hydroxypropylcellulose) (HPC)
[19] = dose: 25.0 mg/kg/injection, schedule: Q01DX009 (ip), vehicle: Klucel (hydroxypropylcellulose) (HPC)
[20] = dose: 240.0 mg/kg/injection, schedule: Q01DX005 (ip), vehicle: saline with Tween-80
[21] = dose: 100.0 mg/kg/injection, schedule: Q01DX005 (ip), vehicle: saline with Tween-80

O=c1nc2n(CC(O)CN3CCCCC3)c3cc(Cl)ccc3nc-2c(=O)[nH]1 (configuration not stated)
T/C (dose: 6.25 mg/kg/injection, schedule: Q01DX005 (ip), vehicle: saline): 103 % of control | T/C (dose: 12.5 mg/kg/injection, schedule: Q01DX005 (ip), vehicle: saline): 106 % of control

C=CCC(C(=O)OCCN(CC)CC)(c1ccccc1)c1ccccc1
T/C (dose: 0.75 mg/kg/injection, schedule: Q01DX009 (ip), vehicle: saline): 100 % of control | T/C (dose: 1.5 mg/kg/injection, schedule: Q01DX009 (ip), vehicle: saline): 94 % of control | T/C (dose: 3.0 mg/kg/injection, schedule: Q01DX009 (ip), vehicle: saline): 100 % of control | T/C (dose: 6.0 mg/kg/injection, schedule: Q01DX009 (ip), vehicle: saline): 103 % of control | T/C (dose: 12.0 mg/kg/injection, schedule: Q01DX009 (ip), vehicle: saline): 100 % of control

CCc1nn2c(-c3cnns3)nnc2s1
T/C [1]: 99 % of control | T/C [2]: 104 % of control | T/C [3]: 99 % of control

C=C1C(=C)C2OC1c1cc3c(cc12)C(=O)C=CC3=O
T/C (dose: 12.5 mg/kg/injection, schedule: Q01DX005 (ip), vehicle: saline with Tween-80): 100 % of control | T/C [4]: 91 % of control

CCN(CC)CCNc1c2ccc(Cl)cc2nc2ccc(OC)nc12
T/C [5]: 114 % of control | T/C [6]: 111 % of control | T/C [7]: 117 % of control

C[Si](C)(C)CNCCNC[Si](C)(C)C
T/C [8]: 105 % of control | T/C [9]: 98 % of control

COC1C(OC2CCC3(C=O)C4CCC5(C)C(C6=CC(=O)OC6)CCC5(O)C4CCC3(O)C2)OC(C)C(O)C1OC (configuration not stated)
T/C (dose: 0.35 mg/kg/injection, schedule: Q01DX009 (ip), vehicle: saline): 99 % of control | T/C (dose: 0.7 mg/kg/injection, schedule: Q01DX009 (ip), vehicle: saline): 100 % of control | T/C (dose: 1.4 mg/kg/injection, schedule: Q01DX009 (ip), vehicle: saline): 100 % of control | T/C (dose: 2.8 mg/kg/injection, schedule: Q01DX009 (ip), vehicle: saline): 100 % of control

c1ccc2c(c1)Sc1cnccc1N2CC1CO1 (configuration not stated)
T/C [10]: 109 % of control | T/C [11]: 100 % of control | T/C (dose: 400.0 mg/kg/injection, schedule: Q01DX009 (ip), vehicle: saline): 100 % of control

O=c1oc2ccccc2n1P(=O)(N1CCOCC1)N1CCOCC1
T/C [12]: 100 % of control | T/C [10]: 98 % of control | T/C [11]: 95 % of control

O=C(N=C(N=C(c1ccccc1)N1CCOCC1)c1ccccc1)c1ccccc1
T/C [13]: 106 % of control | T/C [14]: 102 % of control | T/C [15]: 103 % of control

CC(C)N(C(=S)/N=C1/SC(C)S(=O)(=O)N1C)C(C)C (configuration not stated)
T/C [16]: 117 % of control | T/C [13]: 97 % of control | T/C [14]: 100 % of control

C=CCc1ccccc1C
T/C [14]: 109 % of control | T/C [15]: 101 % of control

Cc1cc(C2(c3cc(C)c(O)c(CN(CC(=O)O)CC(=O)O)c3)OS(=O)(=O)c3ccccc32)cc(CN(CC(=O)O)CC(=O)O)c1O
T/C [12]: 105 % of control | T/C [10]: 96 % of control | T/C [11]: 104 % of control

CC1C(=O)OC(C)(C)C1(C)C (configuration not stated)
T/C [13]: 101 % of control

CN(C)CCNc1ccc(CO)c2sc3ccccc3c(=O)c12
T/C [4]: 93 % of control and 94 % of control | T/C [17]: 101 % of control and 114 % of control

O=c1c2cccc3cccc(c32)c2nc3ccccc3n12
T/C (dose: 4.12 mg/kg/injection, schedule: Q01DX009 (ip), vehicle: saline with Tween-80): 108 % of control | T/C (dose: 6.25 mg/kg/injection, schedule: Q01DX009 (ip), vehicle: saline with Tween-80): 100 % of control | T/C [16]: 95 % of control

CN(C)CCCNc1ccc2ccc3c(NCCCN(C)C)ccc4ccc1c2c43
T/C [18]: 99 % of control | T/C [19]: 102 % of control | T/C [5]: 99 % of control and 112 % of control | T/C [6]: 103 % of control

O=C(OC1CSC=CSC1)c1ccccc1
T/C [5]: 104 % of control | T/C [6]: 109 % of control | T/C [7]: 110 % of control

COC(=O)c1cccnc1C#N
T/C (dose: 30.0 mg/kg/injection, schedule: Q01DX005 (ip), vehicle: Klucel (hydroxypropylcellulose) (HPC)): 100 % of control | T/C (dose: 60.0 mg/kg/injection, schedule: Q01DX005 (ip), vehicle: Klucel (hydroxypropylcellulose) (HPC)): 110 % of control | T/C (dose: 120.0 mg/kg/injection, schedule: Q01DX005 (ip), vehicle: Klucel (hydroxypropylcellulose) (HPC)): 102 % of control | T/C (dose: 240.0 mg/kg/injection, schedule: Q01DX005 (ip), vehicle: Klucel (hydroxypropylcellulose) (HPC)): 112 % of control

Nc1ccccc1Sc1cc(Cl)nnc1Cl
T/C [13]: 93 % of control | T/C [14]: 95 % of control | T/C [15]: 99 % of control

COC(=O)c1nnn(-c2ccc(S(N)(=O)=O)cc2)c1C(=O)c1ccc(OC)cc1
T/C [8]: 100 % of control | T/C [9]: 99 % of control | T/C [20]: 94 % of control

[N-]=[N+]=C1N=Nc2ccccc21
T/C (dose: 0.78 mg/kg/injection, schedule: Q01DX005 (ip), vehicle: Klucel (hydroxypropylcellulose) (HPC)): 99 % of control | T/C (dose: 1.56 mg/kg/injection, schedule: Q01DX005 (ip), vehicle: Klucel (hydroxypropylcellulose) (HPC)): 107 % of control | T/C (dose: 3.12 mg/kg/injection, schedule: Q01DX005 (ip), vehicle: Klucel (hydroxypropylcellulose) (HPC)): 107 % of control

O=C1C(N=Nc2cc(Cl)ccc2Cl)C(O)N(c2ccccc2)C(=S)N1c1cccc(Cl)c1Cl (configuration not stated)
T/C [1]: 98 % of control | T/C [2]: 97 % of control | T/C [3]: 92 % of control

COC(=O)C1=C(C(=O)OC)C2OC1c1cc3ccccc3cc12
T/C (dose: 7.5 mg/kg/injection, schedule: Q01DX005 (ip), vehicle: saline with Tween-80): 113 % of control | T/C (dose: 15.0 mg/kg/injection, schedule: Q01DX005 (ip), vehicle: saline with Tween-80): 113 % of control | T/C (dose: 30.0 mg/kg/injection, schedule: Q01DX005 (ip), vehicle: saline with Tween-80): 108 % of control | T/C [8]: 97 % of control

CCOC(=O)/C=C/c1ccc2c(c1)OCO2
T/C (dose: 100.0 mg/kg/injection, schedule: Q04DX003 (ip), vehicle: saline with Tween-80): 100 % of control | T/C (dose: 200.0 mg/kg/injection, schedule: Q04DX003 (ip), vehicle: saline with Tween-80): 90 % of control | T/C (dose: 400.0 mg/kg/injection, schedule: Q04DX003 (ip), vehicle: saline with Tween-80): 100 % of control

Cc1cnc(=O)[nH]c1NO
T/C (dose: 100.0 mg/kg/injection, schedule: Q04DX002 (ip), vehicle: Klucel (hydroxypropylcellulose) (HPC)): 102 % of control | T/C (dose: 200.0 mg/kg/injection, schedule: Q04DX002 (ip), vehicle: Klucel (hydroxypropylcellulose) (HPC)): 100 % of control | T/C (dose: 400.0 mg/kg/injection, schedule: Q04DX002 (ip), vehicle: Klucel (hydroxypropylcellulose) (HPC)): 98 % of control

Clc1ccccc1N=Cc1ccc(C=Nc2ccccc2Cl)cc1
T/C [18]: 99 % of control | T/C [19]: 92 % of control

COC(=O)C(=CNC(N)=O)C(=O)OC
T/C [8]: 96 % of control | T/C [9]: 100 % of control | T/C [20]: 94 % of control

OC(/C=C/CC(O)(C(F)(F)F)C(F)(F)F)(C(F)(F)F)C(F)(F)F
T/C [12]: 100 % of control | T/C [10]: 98 % of control

N#C/C(=C1/OC(=N)C(c2ccc(Cl)cc2)C1=O)c1ccc(Cl)cc1 (configuration not stated)
T/C [17]: 110 % of control | T/C [21]: 99 % of control

CCN=Cc1c(O)c(O)c(C(C)C)c2cc(C)c(-c3c(C)cc4c(C(C)C)c(O)c(O)c(C=NCC)c4c3O)c(O)c12
T/C [17]: 86 % of control | T/C [21]: 86 % of control | T/C (dose: 200.0 mg/kg/injection, schedule: Q01DX005 (ip), vehicle: saline with Tween-80): 104 % of control

CN(C)C(=O)C1SCCCS1
T/C (dose: 100.0 mg/kg/injection, schedule: Q04DX002 (ip), vehicle: saline with Tween-80): 107 % of control | T/C (dose: 200.0 mg/kg/injection, schedule: Q04DX002 (ip), vehicle: saline with Tween-80): 108 % of control | T/C (dose: 400.0 mg/kg/injection, schedule: Q04DX002 (ip), vehicle: saline with Tween-80): 108 % of control
